The results in this text go back to the NIST ThermoML archive (doi:10.1016/j.jct.2015.08.035).

The conditions of data set [1]: Crystal; DTA.
Data set [2] is described as follows: Molar enthalpy of transition or fusion. Conditions: Crystal; DSC.

± gives the expanded uncertainty stated by the source.

Consider `CC1=C(O)C(=O)C(C)O1` (configuration not stated) [4-hydroxy-2,5-dimethyl-3(2H)-furanone], for which, in data set [1], the Normal melting temperature was found to be 82.07 ± 1.1 °C. Also, the “Molar enthalpy of transition or fusion” value in data set [2] was 18.7 ± 1.1 kJ/mol.
